In US6100254A, “Inhibitors of protein tyrosine kinases” (Board of Regents, The University of Texas System, priority 1997, dated 2000):

Legend:
[1] = biological target: T1, Src (Homo sapiens, UniProt P12931); test: Src tyrosine kinase activity, poly E4Y and 32P-ATP; type: biochemical
T1 construct: made in house; host or cells: baculovirus-insect cell system
Method: The compounds within the library were screened at a concentration of 100 μM using the following assay procedure. A 10 μL aliquot of poly(Glu:Tyr, 4:1) to final concentration of 200 μg/mL, 20 μL of benzodiazepine to be tested, 10 μL of purified Src and 10 μL of [gamma-^32 P]-ATP-MgCl2 cocktail (final concentration of 0.2 mM ATP; specific activity of 600 dpm/pmol, and 6 mM MgCl2) were mixed and incubated in 0.5 mL test tubes at ambient temperature. After 30 min, a 35 μL aliquot was spotted onto a 1×1 inch 3 MM filter paper and dropped into a 5% TCA bath at 60° C. The filter papers were washed 3 times with 5% TCA and air dried. The filter papers were then placed into a vial, 3 mL scintillation cocktail added, and analyzed by liquid scintillation counting.
(§1) The tyrosine kinase activity of Src, Lck (p56^lck), Csk (C-Src kinase), Abl (Bcr-Abl catalytic domain), and the FGFr (fibroblast growth factor receptor catalytic domain), was determined using poly E4 Y and ^32 P-ATP.

[2] = biological target: T2, Csk (C-Src kinase) (Homo sapiens, UniProt P41240); test: Csk tyrosine kinase activity, poly E4Y and 32P-ATP; type: biochemical
T2 construct: glutathione-S-transferase (GST) (N); made in house; host or cells: E. coli
Source text: (§2) The genes encoding Csk, Lck, Abl, and the FGF receptor have all been cloned. The genes encoding Csk, Abl, and the FGF receptor were cloned from humans, and the genes encoding Lck were cloned from a mouse. Recombinant Csk, Lck, Abl, and the FGFr were expressed as glutathione-S-transferase fusion proteins using the pGEX expression vector and E. coli, and purified as described (Sun et al., 1995).
(§3) Recombinant Src was expressed using the baculovirus-insect cell system and purified as published (Budde et al, 1993). Recombinant Csk, Lck, Abl, and the FGFr were expressed as glutathione-S-transferase fusion proteins using the pGEX expression vector and E. coli, and purified as described (Sun and Budde, 1995).
as §1

[3] = test system: AFB-13 normal human fibroblasts; test: Growth of AFB-13 cells, control for cellular toxicity; type: cell-based
Method: (§4) For these assays 2×10^4 cells are plated in 24 well multiwell tissue culture dishes, in 1 ml of DME/F12 media supplemented with 5% fetal bovine serum. After 24 h, media is replaced with fresh media containing the concentration of inhibitor to be tested, or no inhibitor as a control. Cells are counted 1, 3, and 5 days subsequent to addition of inhibitor. For the day 5 counts, media with fresh inhibitor is used to replace spent media after day 3. […] For counting viable cells, cultures are trypsinized, stained with trypan blue, and cell number determined by counting under light microscopy with the use of a hemacytometer. Benzodiazepine derivatives were tested at their maximally soluble concentrations in 0.1% DMSO diluted with tissue culture medium, and serial dilutions were made thereof. Every concentration tested was performed in triplicate, in identical wells under identical assay conditions.

[4] = biological target: T3, Lck (p56^lck) (Mus musculus, UniProt P06240); test: Lck tyrosine kinase activity, poly E4Y and 32P-ATP; type: biochemical
T3 construct: glutathione-S-transferase (GST) (N); made in house; host or cells: E. coli
Source text: as §2, §3, §1

[5] = test system: HT-29 colon adenocarcinoma cells; test: Growth of HT-29 cells, viable cell count; type: cell-based, human; conditions: viable cell count 5 days after plating
Method: as §4

[6] = biological target: protein kinase A (PKA) (Homo sapiens, UniProt P17612); test: Enzyme panel: protein kinase A; type: biochemical
[7] = biological target: Yes (Homo sapiens, UniProt P07947); test: Enzyme panel: Yes; type: biochemical; conditions: apparent value against variable poly E4Y
[8] = test system: HT-29 colon adenocarcinoma cells; test: Anchorage-independent growth, soft agar colony formation; type: cell-based, human
Method: Soft agar colony formation is used to determine anchorage independent growth, an in vitro parameter which correlates well with tumorigenicity of HT 29 cells. (AFB-13 cells are unable to form soft agar colonies, a characteristic of normal cells). These assays are performed in 6 well ([…]) multiwell tissue culture dishes. The wells are underlayed with 1% low melting agarose in complete growth media, and refrigerated for 15 min. 1×10^3 HT 29 cells are then added to the wells in complete media in 0.5% low melting agarose. […] After a 24 h incubation period, 0.5 mL of media containing compound to be tested (or media alone as a control) is added to the dish. During the assay, media with or without the test compound is replenished every 3 days. Colonies estimated to contain >100 cells are counted after 14 days. For compounds that induce growth inhibition, the assay is continued to 28 days to assure that differences in colony forming ability were not due to altered growth rate of cells. For initial screening, assays are performed in duplicate for each compound to be tested, due to the large amount of inhibitor required for the length of the study.

T1 sequence (P12931 whole entry, species assumed): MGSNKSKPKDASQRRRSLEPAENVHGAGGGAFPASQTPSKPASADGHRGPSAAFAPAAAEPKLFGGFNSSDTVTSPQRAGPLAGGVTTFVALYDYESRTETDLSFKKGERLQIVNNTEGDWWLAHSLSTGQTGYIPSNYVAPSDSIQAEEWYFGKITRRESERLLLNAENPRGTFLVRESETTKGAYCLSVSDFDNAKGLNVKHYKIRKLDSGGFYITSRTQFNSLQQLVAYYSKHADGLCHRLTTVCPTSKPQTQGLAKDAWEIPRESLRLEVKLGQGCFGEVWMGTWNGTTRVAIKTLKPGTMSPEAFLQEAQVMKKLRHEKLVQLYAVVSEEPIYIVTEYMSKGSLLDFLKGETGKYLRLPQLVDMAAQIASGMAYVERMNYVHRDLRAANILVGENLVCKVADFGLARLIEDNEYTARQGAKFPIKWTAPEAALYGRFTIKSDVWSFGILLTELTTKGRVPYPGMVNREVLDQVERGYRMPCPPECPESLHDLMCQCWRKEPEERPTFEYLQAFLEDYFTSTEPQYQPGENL
T2 sequence (P41240 whole entry): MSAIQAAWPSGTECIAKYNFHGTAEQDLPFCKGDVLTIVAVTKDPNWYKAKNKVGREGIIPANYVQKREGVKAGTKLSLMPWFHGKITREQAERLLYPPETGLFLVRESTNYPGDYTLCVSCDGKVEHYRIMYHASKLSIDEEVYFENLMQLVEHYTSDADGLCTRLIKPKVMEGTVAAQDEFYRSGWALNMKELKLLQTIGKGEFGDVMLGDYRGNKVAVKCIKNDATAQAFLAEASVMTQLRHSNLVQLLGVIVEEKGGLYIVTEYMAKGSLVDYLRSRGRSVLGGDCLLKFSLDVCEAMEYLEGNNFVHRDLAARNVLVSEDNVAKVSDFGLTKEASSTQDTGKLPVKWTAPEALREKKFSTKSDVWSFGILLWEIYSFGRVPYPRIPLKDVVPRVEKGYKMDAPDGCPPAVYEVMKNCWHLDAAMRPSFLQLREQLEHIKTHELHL
T3 sequence (P06240 whole entry): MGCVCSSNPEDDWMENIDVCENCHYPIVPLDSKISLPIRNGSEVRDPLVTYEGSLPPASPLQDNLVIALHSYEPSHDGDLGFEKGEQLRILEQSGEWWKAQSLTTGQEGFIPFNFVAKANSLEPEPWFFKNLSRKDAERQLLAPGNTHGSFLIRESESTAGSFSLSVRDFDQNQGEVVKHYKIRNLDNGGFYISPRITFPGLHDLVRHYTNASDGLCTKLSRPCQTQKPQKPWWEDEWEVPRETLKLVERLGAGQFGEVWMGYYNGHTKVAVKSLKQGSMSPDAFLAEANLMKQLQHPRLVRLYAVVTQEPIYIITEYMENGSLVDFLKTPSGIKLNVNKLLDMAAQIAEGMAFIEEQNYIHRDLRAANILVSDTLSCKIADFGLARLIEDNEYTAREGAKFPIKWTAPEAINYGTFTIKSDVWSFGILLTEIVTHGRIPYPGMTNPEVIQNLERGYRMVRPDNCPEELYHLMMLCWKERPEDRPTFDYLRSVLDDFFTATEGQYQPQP
Chain of Yes (P07947 whole entry, species assumed): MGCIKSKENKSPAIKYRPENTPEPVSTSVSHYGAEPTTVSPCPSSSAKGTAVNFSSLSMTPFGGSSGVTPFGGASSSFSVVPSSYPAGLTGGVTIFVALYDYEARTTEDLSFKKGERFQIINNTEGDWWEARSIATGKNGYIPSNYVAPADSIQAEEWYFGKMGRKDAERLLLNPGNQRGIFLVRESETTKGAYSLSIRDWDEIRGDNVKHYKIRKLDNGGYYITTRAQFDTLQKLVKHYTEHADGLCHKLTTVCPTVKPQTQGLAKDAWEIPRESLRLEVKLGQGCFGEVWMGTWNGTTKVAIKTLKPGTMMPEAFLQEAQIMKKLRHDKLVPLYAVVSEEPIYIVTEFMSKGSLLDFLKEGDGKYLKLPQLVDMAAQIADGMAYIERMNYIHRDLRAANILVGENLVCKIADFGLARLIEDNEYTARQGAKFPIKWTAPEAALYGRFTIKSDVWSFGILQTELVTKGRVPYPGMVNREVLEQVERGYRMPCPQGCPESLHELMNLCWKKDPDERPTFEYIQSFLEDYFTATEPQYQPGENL

**Q.** What does the source list for `O=C1[C@H](Cc2ccc(O)cc2)N=C(c2ccc(O)cc2)c2cc(Cl)ccc2N1Cc1ccc(-c2ccccc2)cc1` [L-Tyr,BnzPh, 7-chloro-1,3-dihydro-1-(-4-biphenylmethyl)-3-(-4-hydroxyphenylmethyl)-5-(4-hydroxyphenyl)-(2H)1,4-benzodiazepin-2-one]?
**A.** IC50 [1]: 73 µM; Ki ([1]; Table 10, benzodiazepines as inhibitors of Src): 20 µM; mode of inhibition ([1]; against variable ATP or variable poly E4Y): mixed; IC50 [2]: 136 µM; Ki ([2]; apparent value against variable poly E4Y): 63 µM; activity at 3 µM ([3]; Homo sapiens, Fibroblast, 120 h, 3 μM, viable cell count 5 days after plating): 89 ± 6%; activity at 14 µM ([3]; Homo sapiens, Fibroblast, 120 h, 14 μM, viable cell count 5 days after plating): 97 ± 5%; activity at 28 µM ([3]; Homo sapiens, Fibroblast, 120 h, 28 μM, viable cell count 5 days after plating): 90 ± 4%; inhibition of growth of AFB-13 normal fibroblasts ([3]; same concentrations (up to 28 μM)): Less than 10%; IC50 [4]: 505 µM; HT-29 Growth ([5]; 28 μM): cytotoxic; activity at 3 µM ([5]; Homo sapiens, HT-29, 120 h, 3 μM): 100 ± 10%; activity at 14 µM ([5]; Homo sapiens, HT-29, 120 h, 14 μM): 98 ± 9%; IC50 [6]: 450 µM; Ki ([6]; apparent value): 104 µM; Ki [7]: 50 µM; inhibition of colony formation of HT-29 colon adenocarcinoma cells ([8]; 28 μM): complete inhibition; activity at 3 µM ([8]; Homo sapiens, HT-29, 336 h, 3 μM, colonies ≥100 cells 14 days after plating): 29%; activity at 14 µM ([8]; Homo sapiens, HT-29, 336 h, 14 μM, colonies ≥100 cells 14 days after plating): 8%; activity at 28 µM ([8]; Homo sapiens, HT-29, 336 h, 28 μM, colonies ≥100 cells 14 days after plating): 0%
